“And” between values parts separate entries of the source, which are not always exact repeats. Equal values may be shown once.
What was measured:
Assay in all cases: Two-electrode voltage-clamp recordings, Xenopus oocytes
Format in all cases: cell-based
GluN1–1b/2BC1/2DC2 = GluN1–1b/2BC1/2DC2 (Rattus norvegicus, UniProt P35439+Q00959+Q00960+Q62645, A876H/F846L/G856D/H848F/K857R/M851T/M860L/Q845K/R869K/V861L/V866F); conditions: at 10 μM; isoform 1b
GluN1–1a/2BC1/2DC2 = GluN1–1a/2BC1/2DC2 (Rattus norvegicus, UniProt P35439+Q00959+Q00960+Q62645, A876H/F846L/G856D/H848F/K857R/M851T/M860L/Q845K/R869K/V861L/V866F); conditions: at 10 μM; relative to control; isoform 1a
GluN1–1b/2B = GluN1–1b/2B (Rattus norvegicus, UniProt P35439+Q00960); conditions: at 10 μM; isoform 1b
GluN1–1b/2D = GluN1–1b/2D (Rattus norvegicus, UniProt P35439+Q62645); conditions: at 10 μM; isoform 1b
GluN1–1a/2D = GluN1–1a/2D (Rattus norvegicus, UniProt P35439+Q62645); conditions: at 10 μM; relative to control; isoform 1a
GluN1–1a/2D, sequence (Q62645 28-1323, other chains not shown): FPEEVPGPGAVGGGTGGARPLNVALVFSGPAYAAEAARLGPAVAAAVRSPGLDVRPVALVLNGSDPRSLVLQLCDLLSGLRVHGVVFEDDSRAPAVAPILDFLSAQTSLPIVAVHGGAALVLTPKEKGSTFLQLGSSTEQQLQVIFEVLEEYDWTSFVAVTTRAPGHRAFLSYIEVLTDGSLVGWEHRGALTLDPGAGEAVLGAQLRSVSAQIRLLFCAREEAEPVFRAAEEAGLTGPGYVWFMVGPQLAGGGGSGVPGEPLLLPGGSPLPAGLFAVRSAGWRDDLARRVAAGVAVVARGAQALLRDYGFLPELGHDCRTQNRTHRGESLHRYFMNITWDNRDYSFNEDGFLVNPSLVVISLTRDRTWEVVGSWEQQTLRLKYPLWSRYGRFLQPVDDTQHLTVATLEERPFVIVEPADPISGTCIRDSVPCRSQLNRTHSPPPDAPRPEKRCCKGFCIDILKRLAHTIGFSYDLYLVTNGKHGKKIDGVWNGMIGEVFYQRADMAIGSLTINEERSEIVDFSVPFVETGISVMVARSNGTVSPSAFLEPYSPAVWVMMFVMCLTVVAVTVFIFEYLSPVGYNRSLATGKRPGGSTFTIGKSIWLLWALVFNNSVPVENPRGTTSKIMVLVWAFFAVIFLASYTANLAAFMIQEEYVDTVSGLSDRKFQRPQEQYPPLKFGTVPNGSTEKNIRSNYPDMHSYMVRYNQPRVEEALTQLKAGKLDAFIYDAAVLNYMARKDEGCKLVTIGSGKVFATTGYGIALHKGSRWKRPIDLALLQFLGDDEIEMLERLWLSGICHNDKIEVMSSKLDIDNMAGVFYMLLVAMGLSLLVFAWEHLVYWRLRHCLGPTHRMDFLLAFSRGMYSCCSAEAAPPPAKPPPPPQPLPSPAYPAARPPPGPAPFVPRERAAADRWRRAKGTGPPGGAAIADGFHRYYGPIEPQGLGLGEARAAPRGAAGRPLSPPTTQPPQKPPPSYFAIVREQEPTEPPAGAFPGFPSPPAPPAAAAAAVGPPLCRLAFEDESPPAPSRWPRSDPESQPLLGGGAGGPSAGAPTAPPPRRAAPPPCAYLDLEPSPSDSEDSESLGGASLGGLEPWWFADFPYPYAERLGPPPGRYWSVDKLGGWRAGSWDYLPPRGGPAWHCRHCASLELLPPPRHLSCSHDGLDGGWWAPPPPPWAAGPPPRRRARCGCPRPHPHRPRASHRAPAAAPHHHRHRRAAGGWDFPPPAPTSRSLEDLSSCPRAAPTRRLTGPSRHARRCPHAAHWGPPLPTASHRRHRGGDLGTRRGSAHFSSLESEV

GluN1–1b/2B, sequence (Q00960 27-1482, other chains not shown): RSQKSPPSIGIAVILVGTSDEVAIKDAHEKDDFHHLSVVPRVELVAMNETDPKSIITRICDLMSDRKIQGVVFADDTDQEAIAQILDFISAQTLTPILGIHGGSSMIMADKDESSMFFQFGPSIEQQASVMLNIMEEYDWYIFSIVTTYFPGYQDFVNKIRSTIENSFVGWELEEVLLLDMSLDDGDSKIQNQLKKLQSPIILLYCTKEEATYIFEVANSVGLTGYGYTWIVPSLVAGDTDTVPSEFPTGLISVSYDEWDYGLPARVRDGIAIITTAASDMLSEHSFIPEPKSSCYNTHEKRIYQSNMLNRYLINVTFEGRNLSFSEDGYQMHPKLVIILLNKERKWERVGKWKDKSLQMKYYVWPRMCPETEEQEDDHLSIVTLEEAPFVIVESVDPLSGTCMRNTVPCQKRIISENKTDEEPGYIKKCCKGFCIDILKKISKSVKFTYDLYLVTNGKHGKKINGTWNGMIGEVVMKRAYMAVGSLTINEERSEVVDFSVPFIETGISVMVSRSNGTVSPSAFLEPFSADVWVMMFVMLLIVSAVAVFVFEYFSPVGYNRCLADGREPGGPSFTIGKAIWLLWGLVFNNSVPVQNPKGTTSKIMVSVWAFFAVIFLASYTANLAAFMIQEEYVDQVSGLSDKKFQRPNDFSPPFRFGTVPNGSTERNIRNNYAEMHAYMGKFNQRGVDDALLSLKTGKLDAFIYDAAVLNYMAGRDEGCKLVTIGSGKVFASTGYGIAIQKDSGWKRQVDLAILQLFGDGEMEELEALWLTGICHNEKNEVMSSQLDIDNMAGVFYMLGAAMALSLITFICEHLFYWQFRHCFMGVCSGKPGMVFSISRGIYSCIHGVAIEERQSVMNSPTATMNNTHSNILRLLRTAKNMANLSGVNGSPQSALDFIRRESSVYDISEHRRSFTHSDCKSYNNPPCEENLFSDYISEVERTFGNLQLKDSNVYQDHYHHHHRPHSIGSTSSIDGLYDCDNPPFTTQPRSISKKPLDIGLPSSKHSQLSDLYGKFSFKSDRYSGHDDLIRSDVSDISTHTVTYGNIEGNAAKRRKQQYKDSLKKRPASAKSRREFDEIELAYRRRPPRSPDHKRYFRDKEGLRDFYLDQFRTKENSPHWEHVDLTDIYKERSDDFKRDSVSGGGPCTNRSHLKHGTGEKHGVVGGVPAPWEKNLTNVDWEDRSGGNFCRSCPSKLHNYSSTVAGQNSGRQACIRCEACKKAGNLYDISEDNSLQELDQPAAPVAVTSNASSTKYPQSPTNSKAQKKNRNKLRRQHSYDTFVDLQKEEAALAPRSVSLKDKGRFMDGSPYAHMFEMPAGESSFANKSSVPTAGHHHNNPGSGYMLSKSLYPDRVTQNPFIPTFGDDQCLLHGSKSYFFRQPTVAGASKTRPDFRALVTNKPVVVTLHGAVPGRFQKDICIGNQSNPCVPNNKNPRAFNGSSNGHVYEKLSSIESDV
GluN1–1b/2D, sequence (Q62645 28-1323, other chains not shown): as the sequence (Q62645 28-1323, other chains not shown) above

Structure (SMILES): COc1ccc(OCC2c3cc(OC)c(OC)cc3CCN2C(=O)c2cccc(Cl)c2)cc1 (centres unmarked) [CIQ]
- Relative Imax (GluN1–1b/2BC1/2DC2): 115% and 115 ± 3%
- Relative Imax (GluN1–1a/2BC1/2DC2): 139% and 139 ± 3%
- Relative Imax (GluN1–1b/2B): 91% and 91 ± 3%
- Relative Imax (GluN1–1b/2D): 197% and 197 ± 8%
- Relative Imax (GluN1–1a/2D): 227% and 227 ± 8%
